From patent US20250295619A1, “Use of Salvianolic Acid E in the Preparation of Drugs Targeting Senescent Cells, Inhibiting Tumors or Extending Lifespan” (Shanghai Institute of Nutrition and Health, Chinese Academy …, priority 2024, published 2025)

Experiments:
PC3/PSC27 tumors = test: Disease-free survival of tumor-bearing NOD/SCID mice; assay type: in vivo, mouse; settings: severe disease at tumor size ≥2000 mm3
Excerpt: When the tumor volume in the vehicle, MIT, SAE and MIT/SAE groups exceeds 2000 mm3, it is considered that severe disease has occurred, and the mice need to be killed in time and the tumor bearing status should be detected. ^, P>0.05; **, P<0.01.
Then the survival of animals in different drug-treated groups was compared, primarily in a time-prolonged manner to assess the consequences of tumor progression. In this preclinical cohort, animals were monitored for prostate tumor growth, and severe disease was judged to have occurred once the […] tumor burden in mice was prominent (size≥2000 mm3), which was a method used for assessing progression of tumors and other diseases in certain conditions.

aged C57BL/6 mice = test: Lifespan study in aged C57BL/6 mice; assay type: in vivo, mouse; settings: administered from 24-27 months of age, every two weeks
Description: Starting at 24 to 27 months of age, C57BL/6 mice received intraperitoneal administration of vehicle or SAE every two weeks (n=80 for vehicle group; n=91 for SAE group). The median survival of animals in each group was calculated and indicated. ****, P<0.0001.
Starting at 24 to 27 months of age, C57BL/6 mice received intraperitoneal administration of vehicle or SAE every two weeks (n=80 for vehicle group; n=91 for SAE group). The median lifetime survival of animals in each group was calculated and indicated. ****, P<0.0001.
For the cell transplantation study, the inventors obtained […] male C57BL/6 mice by serial rearing in the SPF animal platform, with 4 to 5 animals per cage. The inventors first sorted the mice by body weight from low to high, and then selected mice with similar body weights. Next, the mice were assigned to senescence (SEN) or control (CTRL) transplant treatment at each interval using a random number generator, while the middle mice were assigned to the other treatment, so that the body weights of the senescence and control transplant mice were matched. One month after cell transplantation, when the mice were 18 months old, physical function tests were performed. After that, no further testing was done on the mice other than checking their cages. The earliest deaths occurred approximately 2 months after the last physical function test. […]

## O=C(/C=C/c1ccc(O)c(O)c1/C(=C\c1ccc(O)c(O)c1)C(=O)O[C@H](Cc1ccc(O)c(O)c1)C(=O)O)O[C@H](Cc1ccc(O)c(O)c1)C(=O)O [SAE, salvianolic acid E]
PC3/PSC27 tumors
  median survival of tumor-bearing mice: only a marginal extension of survival
Aged C57BL/6 mice
  risk of death HR (SAE group/vehicle group): 0.3249
